Values quoted from earlier work as cited in patent US9061040B2, “Combination therapy for breast cancer” (priority 2011, dated 2015).

Experiments:
[1] = 180-300 mg/day over 10 years
liver cancer = settings: 45 mg daily for two years, women with viral liver cirrhosis
prostate cancer = settings: male smokers
advanced prostate cancer = settings: supplemental intake greater than 400 IU/day; current smokers or quit within the past 10 years

CC1=C(/C=C/C(C)=C/C=C/C(C)=C/C=C/C=C(C)/C=C/C=C(C)/C=C/C2=C(C)CCCC2(C)C)C(C)(C)CCC1 [β-carotene]
toxicity [1]: did not show any toxicity

menaquinone [vitamin K2 (menaquinone)]
less likely to develop liver cancer (liver cancer): ~90%

vitamin E
reduction of prostate cancer cases (prostate cancer; 50 mg daily versus no vitamin E): one-third reduction
new cases of prostate cancer among participants who received vitamin E (prostate cancer; 50 mg daily, 5 to 8-year intervention, 147 cases without vitamin E, 246 in total): 99 cases
reduction in risk of advanced prostate cancer (advanced prostate cancer): 71%
